Source: US20110190365A1, “Insecticidal 4-phenyl-1H-pyrazoles” (Bayer Crop Science AG, priority 2008, published 2011)

Assay: log P by HPLC on a reversed-phase column (C18), EEC Directive 79/831 Annex V.A8
Assay type: physicochemical
Details: HCOOH
Procedure: The stated log P values were determined in accordance with EEC Directive 79/831 Annex V.A8 by HPLC (High Performance Liquid Chromatography) using a reversed-phase column (C18).

| Structure (SMILES) | log P (HCOOH) |
| --- | --- |
| CC(NC(=O)c1ccc(-n2nc(C(F)(F)F)c(-c3ccc(Cl)c(F)c3)c2N)cc1)C(F)(F)F (stereo not drawn) [I-A-Q2-169] | I-A-Q2-169: log P (HCOOH): 3.78 |
| Nc1c(-c2ccc(F)c(F)c2)c(C(F)(F)F)nn1-c1ccc(C(=O)NCc2ccccn2)cc1 [I-A-Q2-177] | I-A-Q2-177: log P (HCOOH): 2.27 |
| CC(NC(=O)c1ccc(-n2nc(C(F)(F)F)c(-c3cc(Cl)cc(Cl)c3)c2N)cc1)c1ccccn1 (stereo not drawn) [I-A-Q2-147] | I-A-Q2-147: log P (HCOOH): 3.47 |
| CC(C)(C)NC(=O)c1ccc(-n2nc(C(F)(F)F)c(-c3cc(Cl)cc(Cl)c3)c2N)cc1 [I-A-Q2-146] | I-A-Q2-146: log P (HCOOH): 4.54 |
| Nc1c(-c2cc(Cl)cc(Cl)c2)c(C(F)(F)F)nn1-c1ccc(C(=O)NCc2ccccn2)cc1 [I-A-Q2-134] | I-A-Q2-134: log P (HCOOH): 3.11 |
| CCC(CC)NC(=O)c1ccc(-n2nc(C(F)(F)F)c(-c3cc(Cl)cc(Cl)c3)c2N)cc1C [I-A-Q2-225] | I-A-Q2-225: log P (HCOOH): 4.57 |
| Cc1cc(C)cc(-c2c(C(F)(F)F)nn(-c3ccc(C(=O)NCc4ccccn4)cc3)c2N)c1 [I-A-Q2-180] | I-A-Q2-180: log P (HCOOH): 2.61 |
| Cc1cc(-n2nc(C(F)(F)F)c(-c3cc(Cl)cc(Cl)c3)c2N)ccc1C(=O)NCC(C)C [I-A-Q2-227] | I-A-Q2-227: log P (HCOOH): 4.40 |
| Nc1c(-c2cccc(Br)c2)c(C(F)(F)F)nn1-c1ccc(C(=O)NCc2ccccn2)cc1 [I-A-Q2-174] | I-A-Q2-174: log P (HCOOH): 2.50 |
| Nc1c(Br)c(C(F)(F)F)nn1-c1ccc(C(=O)O)cc1 [XI-A-038] | XI-A-038: log P (HCOOH): 2.38 |
| Cc1cc(-n2nc(C(F)(F)F)c(-c3cc(Cl)cc(Cl)c3)c2N)ccc1C(=O)NC(c1ccc(Oc2ccccc2)cc1)C(F)(F)F (stereo not drawn) [I-A-Q2-045] | I-A-Q2-045: log P (HCOOH): 5.85 |
| Cc1cc(-n2nc(C3CC3)c(-c3ccc(Cl)cc3)c2N)ccc1C(=O)NCC(F)(F)C(F)F [I-A-Q2-341] | I-A-Q2-341: log P (HCOOH): 3.46 |
| Nc1c(-c2cccc(Cl)c2)c(C(F)(F)F)nn1-c1ccc(C(=O)NC2CC2)cc1 [I-A-Q2-091] | I-A-Q2-091: log P (HCOOH): 3.09 |
| CC(NC(=O)c1ccc(-n2nc(C(F)(F)F)c(-c3cc(F)c(F)c(F)c3)c2N)cc1)c1ccccn1 (stereo not drawn) [I-A-Q2-196] | I-A-Q2-196: log P (HCOOH): 2.84 |
| CC(NC(=O)c1ccc(-n2nc(-c3ccccc3)c(-c3ccc(Cl)cc3)c2N)cc1)c1ccccc1 (stereo not drawn) [I-A-Q2-077] | I-A-Q2-077: log P (HCOOH): 4.17 |
| Cc1cc(-n2nc(C(F)(F)F)c(-c3cc(F)cc(F)c3)c2N)ccc1C(=O)NCC(F)(F)C(F)F [I-A-Q2-315] | I-A-Q2-315: log P (HCOOH): 3.37 |

| Structure (SMILES) | log P (HCOOH) |
| --- | --- |
| Cc1cc(-n2nc(C(F)(F)F)c(-c3cc(Cl)cc(Cl)c3)c2N)ccc1C(=O)NCc1cccc(N2CCOCC2)n1 [I-A-Q2-280] | I-A-Q2-280: log P (HCOOH): 3.96 |
| Cc1cc(-n2nc(C(F)(F)F)c(-c3cc(Cl)cc(Cl)c3)c2N)ccc1C(=O)NC(C)c1ccc(Cl)nc1 (stereo not drawn) [I-A-Q2-248] | I-A-Q2-248: log P (HCOOH): 4.34 |
| Nc1c(-c2cc(Cl)cc(Cl)c2)c(C(F)(F)F)nn1-c1ccc(C(=O)NCc2ccccc2)cc1 [I-A-Q2-152] | I-A-Q2-152: log P (HCOOH): 4.45 |
| Cc1cc(-n2nc(C(F)(F)F)c(-c3cc(Cl)cc(Cl)c3)c2N)ccc1C(=O)NCc1cn(C)cn1 [I-A-Q2-058] | I-A-Q2-058: log P (HCOOH): 1.94 |
| CC(C)NC(=O)c1ccc(-n2nc(C(F)(F)F)c(-c3ccc(Br)cc3)c2N)cc1 [I-A-Q2-187] | I-A-Q2-187: log P (HCOOH): 3.42 |
| Cc1cc(-n2nc(C(F)(F)F)c(-c3cc(Cl)cc(Cl)c3)c2N)ccc1C(=O)NC1CCOCC1 [I-A-Q2-250] | I-A-Q2-250: log P (HCOOH): 3.68 |
| Cc1cc(-n2nc(C(F)(F)F)c(I)c2N)ccc1C(=O)O [XI-A-087] | XI-A-087: log P (HCOOH): 2.58 |
| Nc1c(-c2ccc(Cl)cc2)c(-c2ccccc2)nn1-c1ccc(C(=O)NCc2ncccn2)cc1 [I-A-Q2-076] | I-A-Q2-076: log P (HCOOH): 2.89 |
| Cc1cc(-n2nc(C)c(-c3ccccc3Cl)c2N)ccc1C(=O)NCc1ccccn1 [I-A-Q2-373] | I-A-Q2-373: log P (HCOOH): 1.64 |
| CCOC(=O)N1CCC(NC(=O)c2ccc(-n3nc(C(F)(F)F)c(-c4cc(Cl)cc(Cl)c4)c3N)cc2C)CC1 [I-A-Q2-204] | I-A-Q2-204: log P (HCOOH): 4.22 |
| Cc1cc(-n2nc(C(F)(F)F)c(-c3cc(Cl)cc(Cl)c3)c2N)ccc1C(=O)NCC(F)(F)C(F)(F)C(F)(F)F [I-A-Q2-266] | I-A-Q2-266: log P (HCOOH): 4.89 |
| Cc1cc(-n2nc(C(F)(F)F)c(-c3cc(Cl)cc(Cl)c3)c2N)ccc1C(=O)NC(CC(C)C)C(F)(F)F (stereo not drawn) [I-A-Q2-198] | I-A-Q2-198: log P (HCOOH): 5.40 |
| CC(C)(CC(F)(F)F)NC(=O)c1ccc(-n2nc(C(F)(F)F)c(-c3cc(Cl)cc(Cl)c3)c2N)cc1 [I-A-Q2-069] | I-A-Q2-069: log P (HCOOH): 4.83 |
| Cc1cc(-n2nc(C(F)(F)F)c(-c3cc(Cl)cc(Cl)c3)c2N)ccc1C(=O)NCC(F)(F)C(F)(F)F [I-A-Q2-269] | I-A-Q2-269: log P (HCOOH): 4.57 |
| Nc1c(-c2cc(Cl)cc(Cl)c2)c(C(F)(F)F)nn1-c1ccc(C(=O)NCc2ncccn2)cn1 [I-A-Q2-108] | I-A-Q2-108: log P (HCOOH): 3.80 |

Same assay, conditions: HCOOH; Table 4, compounds of formula I-A-Q4

| Structure (SMILES) | log P (HCOOH) |
| --- | --- |
| FC(F)(F)c1nn(-c2ccc(I)cc2)c(I)c1-c1cc(Cl)cc(Cl)c1 [I-A-Q4-018] | I-A-Q4-018: log P (HCOOH): 6.50 |
| Nc1c(-c2cccc(F)c2)c(C(F)(F)F)nn1-c1ccc(Cl)cn1 [I-A-Q4-049] | I-A-Q4-049: log P (HCOOH): 4.51 |
| COc1ccc(-c2c(C)nn(-c3ccc(Cl)cn3)c2N)cc1 [I-A-Q4-061] | I-A-Q4-061: log P (HCOOH): 3.58 |
| Nc1c(-c2ccc(Cl)cc2Cl)c(C(F)(F)F)nn1-c1ccc(C(=O)O)cc1 [I-A-Q4-095] | I-A-Q4-095: log P (HCOOH): 3.44 |

Same assay, conditions: HCOOH; compounds of the formula (IX), Table 11

| Structure (SMILES) | log P (HCOOH) |
| --- | --- |
| CC(=O)Nc1[nH]nc(C(F)(F)F)c1-c1ccc(Cl)cc1Cl [IX-204] | IX-204: log P (HCOOH): 2.79 |
| Nc1[nH]nc(C(F)(F)F)c1-c1ccc(F)c(F)c1 [IX-201] | IX-201: log P (HCOOH): 2.33 |
| Nc1[nH]nc(C(F)(F)F)c1-c1cc(Cl)cc(Cl)c1 [IX-021] | IX-021: log P (HCOOH): 2.91 |

Same assay, conditions: HPLC, reversed-phase C18, mobile phase with formic acid

| Structure (SMILES) | log P (HCOOH) |
| --- | --- |
| N#Cc1cc(-n2nc(-c3ccccc3)c(-c3ccc(Cl)cc3)c2N)ccc1-n1cncn1 [I-A-Q1-063] | I-A-Q1-063: log P (HCOOH): 3.53 |
| N#Cc1cc(-n2nc(C(F)(F)F)c(-c3ccccc3Cl)c2N)ccc1-n1cncn1 [I-A-Q1-035] | I-A-Q1-035: log P (HCOOH): 2.80 |
| N#Cc1cc(-n2nc(C(F)(F)F)c(-c3cccc(Br)c3)c2N)ccc1-n1cncn1 [I-A-Q1-046] | I-A-Q1-046: log P (HCOOH): 3.24 |
| N#Cc1cc(-n2nc(C(F)F)c(-c3ccc(F)cc3F)c2N)ccc1-n1cncn1 [I-A-Q1-048] | I-A-Q1-048: log P (HCOOH): 2.39 |
| CCNC(=O)NCc1ccc(-n2nc(C(F)(F)F)c(-c3cc(Cl)cc(Cl)c3)c2N)cc1Cl [I-A-Q3-024] | I-A-Q3-024: log P (HCOOH): 3.85 |
| Nc1c(-c2cc(Cl)cc(Cl)c2)c(C(F)(F)F)nn1-c1ccc(-n2cncn2)c(Cl)c1 [I-A-Q1-069] | I-A-Q1-069: log P (HCOOH): 4.14 |

Same assay, conditions: HPLC, reversed-phase C18, mobile phase with formic acid; read-out: log P (HCOOH)

| Structure (SMILES) | chromatographic logP |
| --- | --- |
| Cc1cc(-n2nc(C(F)(F)F)c(-c3ccc(Cl)c(Cl)c3)c2N)ccc1C(=O)O [I-A-Q4-012, 4-[5-Amino-4-(3,4-dichlorophenyl)-3-(trifluoromethyl)-1H-pyrazol-1-yl]-2-methylbenzoic acid] | 3.92 |
